Results taken from PMC4649089, “Urea Unfolding Study of E. coli Alanyl-tRNA Synthetase and Its Monomeric Variants Proves the Role of C-Terminal Domain in Stability” (Journal of Amino Acids, 2015).

Tests used:
[1] = molecular target: T1, WT-alaRS (Escherichia coli, UniProt P00957); assay: ANS fluorescence titration; assay type: binding; details: read-out: dissociation constant
T1 construct: gene alaS; full length, 875 residues, N-terminal His tag (pET28a), expressed in E. coli BL21(DE3), homodimer, 192500 Da
T1 sequence (P00957 2-876): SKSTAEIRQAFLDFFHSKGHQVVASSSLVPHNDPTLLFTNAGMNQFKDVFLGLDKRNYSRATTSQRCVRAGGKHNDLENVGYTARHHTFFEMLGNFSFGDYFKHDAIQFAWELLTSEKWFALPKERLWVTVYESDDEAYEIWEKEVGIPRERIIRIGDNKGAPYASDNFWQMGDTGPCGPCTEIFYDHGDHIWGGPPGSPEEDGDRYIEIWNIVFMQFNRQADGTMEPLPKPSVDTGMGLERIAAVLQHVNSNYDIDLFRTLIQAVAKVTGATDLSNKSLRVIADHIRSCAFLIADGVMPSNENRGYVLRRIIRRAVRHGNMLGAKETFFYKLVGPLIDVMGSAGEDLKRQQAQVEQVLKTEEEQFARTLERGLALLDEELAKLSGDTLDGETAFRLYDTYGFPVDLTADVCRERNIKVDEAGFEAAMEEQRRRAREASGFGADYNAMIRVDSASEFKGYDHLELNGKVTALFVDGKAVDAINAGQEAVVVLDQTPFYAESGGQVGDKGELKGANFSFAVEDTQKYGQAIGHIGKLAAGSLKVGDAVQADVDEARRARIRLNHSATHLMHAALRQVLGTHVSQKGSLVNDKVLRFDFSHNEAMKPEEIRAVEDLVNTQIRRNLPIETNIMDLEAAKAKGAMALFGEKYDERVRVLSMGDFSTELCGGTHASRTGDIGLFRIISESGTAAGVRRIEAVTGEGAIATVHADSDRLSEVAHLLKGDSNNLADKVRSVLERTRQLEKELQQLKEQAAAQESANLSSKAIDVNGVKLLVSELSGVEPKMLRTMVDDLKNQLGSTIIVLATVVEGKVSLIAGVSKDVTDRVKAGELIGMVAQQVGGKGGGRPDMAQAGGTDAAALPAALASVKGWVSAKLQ

[2] = molecular target: T2, alaRS (Escherichia coli, UniProt P00957, G675D); assay: ANS fluorescence titration; assay type: binding; details: read-out: dissociation constant
T2 construct: gene alaS; full length, 875 residues, N-terminal His tag (pET28a), expressed in E. coli BL21(DE3), homodimer, 192500 Da
T2 sequence (P00957 2-876 G675D): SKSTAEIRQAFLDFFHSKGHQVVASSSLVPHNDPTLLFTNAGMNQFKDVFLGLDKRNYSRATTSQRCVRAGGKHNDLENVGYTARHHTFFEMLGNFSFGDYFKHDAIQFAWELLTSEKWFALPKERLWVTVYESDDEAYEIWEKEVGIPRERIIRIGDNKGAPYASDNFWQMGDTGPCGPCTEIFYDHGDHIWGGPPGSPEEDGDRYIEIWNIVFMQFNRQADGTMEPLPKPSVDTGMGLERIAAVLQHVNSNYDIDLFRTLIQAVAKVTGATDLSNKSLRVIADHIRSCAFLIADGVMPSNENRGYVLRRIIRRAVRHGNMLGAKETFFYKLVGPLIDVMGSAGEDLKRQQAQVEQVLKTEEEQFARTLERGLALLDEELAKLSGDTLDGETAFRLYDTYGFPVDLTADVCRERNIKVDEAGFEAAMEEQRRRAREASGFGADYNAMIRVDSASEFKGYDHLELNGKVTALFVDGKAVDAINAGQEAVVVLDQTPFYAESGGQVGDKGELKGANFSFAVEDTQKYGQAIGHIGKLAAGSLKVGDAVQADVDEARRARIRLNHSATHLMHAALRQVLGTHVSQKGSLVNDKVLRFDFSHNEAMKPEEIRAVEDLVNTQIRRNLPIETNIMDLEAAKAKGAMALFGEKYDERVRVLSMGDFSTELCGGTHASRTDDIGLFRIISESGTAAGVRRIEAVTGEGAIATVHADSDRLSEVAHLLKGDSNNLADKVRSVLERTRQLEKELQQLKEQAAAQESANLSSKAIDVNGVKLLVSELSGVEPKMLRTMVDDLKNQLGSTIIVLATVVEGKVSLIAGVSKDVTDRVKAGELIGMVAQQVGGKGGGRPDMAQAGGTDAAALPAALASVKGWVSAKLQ

[3] = molecular target: T3, N700 alaRS (Escherichia coli, UniProt P00957); assay: ANS fluorescence titration; assay type: binding; details: read-out: dissociation constant
T3 construct: gene alaS; N-terminal residues 1-700, N-terminal His tag (pET20a), expressed in E. coli BL21(DE3), monomer, 77000 Da
T3 sequence (P00957 2-701): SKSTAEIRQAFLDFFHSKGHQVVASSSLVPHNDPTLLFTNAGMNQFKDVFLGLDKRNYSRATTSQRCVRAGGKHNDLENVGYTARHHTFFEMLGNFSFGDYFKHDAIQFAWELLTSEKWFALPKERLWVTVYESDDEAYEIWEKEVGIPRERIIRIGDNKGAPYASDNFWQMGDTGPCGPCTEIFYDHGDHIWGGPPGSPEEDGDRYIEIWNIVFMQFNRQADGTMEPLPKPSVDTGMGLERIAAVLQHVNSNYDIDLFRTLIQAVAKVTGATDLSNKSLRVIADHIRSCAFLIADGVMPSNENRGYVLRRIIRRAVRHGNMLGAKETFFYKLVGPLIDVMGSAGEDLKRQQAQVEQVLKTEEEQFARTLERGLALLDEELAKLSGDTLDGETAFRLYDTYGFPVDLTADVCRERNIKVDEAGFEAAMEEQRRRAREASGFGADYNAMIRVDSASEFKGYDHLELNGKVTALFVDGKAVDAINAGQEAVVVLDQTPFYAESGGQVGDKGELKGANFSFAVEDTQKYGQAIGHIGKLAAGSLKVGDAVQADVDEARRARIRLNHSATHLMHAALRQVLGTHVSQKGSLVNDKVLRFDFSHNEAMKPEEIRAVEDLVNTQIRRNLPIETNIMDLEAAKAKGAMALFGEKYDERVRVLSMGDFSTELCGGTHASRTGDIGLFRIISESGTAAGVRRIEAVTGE

[4] = molecular target: T4, N461 alaRS (Escherichia coli, UniProt P00957); assay: ANS fluorescence titration; assay type: binding; details: read-out: dissociation constant
T4 construct: gene alaS; N-terminal residues 1-461 (aminoacylation and tRNA recognition domain), N-terminal His tag (pET28a), expressed in E. coli BL21(DE3), monomer, 50710 Da
T4 sequence (P00957 2-462): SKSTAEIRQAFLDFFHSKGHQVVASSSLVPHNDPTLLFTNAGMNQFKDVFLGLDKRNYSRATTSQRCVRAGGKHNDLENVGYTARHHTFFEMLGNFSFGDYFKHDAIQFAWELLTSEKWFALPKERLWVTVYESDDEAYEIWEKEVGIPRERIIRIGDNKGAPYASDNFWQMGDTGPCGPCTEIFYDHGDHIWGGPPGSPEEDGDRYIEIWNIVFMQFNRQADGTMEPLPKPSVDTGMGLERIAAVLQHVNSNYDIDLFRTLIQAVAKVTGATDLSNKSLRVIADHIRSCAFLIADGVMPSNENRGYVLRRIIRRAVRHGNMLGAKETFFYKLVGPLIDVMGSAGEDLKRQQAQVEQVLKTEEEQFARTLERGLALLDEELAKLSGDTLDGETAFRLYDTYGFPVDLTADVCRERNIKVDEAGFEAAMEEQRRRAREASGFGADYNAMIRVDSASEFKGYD

[5] = molecular target: the molecule itself; assay: AUC; sedimentation equilibrium, loading concentrations 5 μM, 10 μM and 20 μM (monomer), 20°C, 100 mM Tris-HCl pH 8.0, global single-species fit in SEDPHAT

Molecule: O=S(=O)(O)c1cccc2cccc(Nc3ccccc3)c12 [ANS]
- Kd [1]: 1000 to 5000 nM
- Kd [2]: 1000 to 5000 nM
- Kd [3]: 1000 to 5000 nM
- Kd [4]: 1000 to 5000 nM

B1: wild type E. coli alanyl-tRNA synthetase (enzyme, UniProt P00957 1-876, looked up)
chain: MSKSTAEIRQAFLDFFHSKGHQVVASSSLVPHNDPTLLFTNAGMNQFKDVFLGLDKRNYSRATTSQRCVRAGGKHNDLENVGYTARHHTFFEMLGNFSFGDYFKHDAIQFAWELLTSEKWFALPKERLWVTVYESDDEAYEIWEKEVGIPRERIIRIGDNKGAPYASDNFWQMGDTGPCGPCTEIFYDHGDHIWGGPPGSPEEDGDRYIEIWNIVFMQFNRQADGTMEPLPKPSVDTGMGLERIAAVLQHVNSNYDIDLFRTLIQAVAKVTGATDLSNKSLRVIADHIRSCAFLIADGVMPSNENRGYVLRRIIRRAVRHGNMLGAKETFFYKLVGPLIDVMGSAGEDLKRQQAQVEQVLKTEEEQFARTLERGLALLDEELAKLSGDTLDGETAFRLYDTYGFPVDLTADVCRERNIKVDEAGFEAAMEEQRRRAREASGFGADYNAMIRVDSASEFKGYDHLELNGKVTALFVDGKAVDAINAGQEAVVVLDQTPFYAESGGQVGDKGELKGANFSFAVEDTQKYGQAIGHIGKLAAGSLKVGDAVQADVDEARRARIRLNHSATHLMHAALRQVLGTHVSQKGSLVNDKVLRFDFSHNEAMKPEEIRAVEDLVNTQIRRNLPIETNIMDLEAAKAKGAMALFGEKYDERVRVLSMGDFSTELCGGTHASRTGDIGLFRIISESGTAAGVRRIEAVTGEGAIATVHADSDRLSEVAHLLKGDSNNLADKVRSVLERTRQLEKELQQLKEQAAAQESANLSSKAIDVNGVKLLVSELSGVEPKMLRTMVDDLKNQLGSTIIVLATVVEGKVSLIAGVSKDVTDRVKAGELIGMVAQQVGGKGGGRPDMAQAGGTDAAALPAALASVKGWVSAKLQ
notes: alanyl-tRNA synthetase (alaRS), E. coli, full length, printed as 875 residues per subunit; Clone was a gift from Paul Schimmel; homodimer by sedimentation equilibrium and velocity; also called WT-alaRS; WT; source: E. coli BL21 (DE3), pET28a, purified (Ni-NTA agarose)
- stoichiometry N [5]: 2
